Assay results: patent publication EP4775580A1, “COMPOUND, PHARMACEUTICAL COMPOSITION COMPRISING SAME, AND USE THEREOF” (Euregen Biopharma Co., Ltd., priority 2023, dated 2025)

Assays:
MV-4-11 cells = assay: Antiproliferative activity, CellTiter-Glo, 7 days (Test Example 2), MV-4-11; format: cell-based; conditions: Homo sapiens, MV4-11, 168 h, 7 days incubation
Excerpt: [0134] 1. Experimental Principle: MV-4-11, Molm-13, and OCI-AML-3 cells are human hematologic tumor cell lines harboring the Menin-MLL fusion. HL-60 is a wild-type human hematologic tumor cell line without Menin-MLL fusion. […] 2. Experimental Materials: MV-4-11, Molm-13, OCI-AML-3, and HL-60 cells were all purchased from Cobioer; CellTiter-Glo® was purchased from Promega (Cat. #G7571); RPMI-1640 was purchased from Viva Cell (Cat. #C3010-0500); IMDM was purchased from Viva Cell (Cat. #C3040-0500); fetal bovine serum (FBS) was purchased from Biosera (Cat. #FB-1058/500); penicillin-streptomycin was purchased from BasalMedia (Cat. #S110JV); 0.25% Trypsin-EDTA was purchased from BasalMedia (Cat. #S310KJ); dimethyl sulfoxide (DMSO) was purchased from Sinopharm (Cat. #30072418); 96-well plates were purchased from Corning (Cat. #3610); incubator was obtained from PHCbi (Model: MCO-18AC); inverted microscope was obtained from Mingmei (Cat. #MI52-0); automated cell counter was obtained from BodBoge (Model: JSY-SC-031N); microplate reader was obtained from PerkinElmer (Model: Envision); data processing software: GraphPad Prism 8.0. 3. Experimental Methods: Four cell lines in logarithmic growth phase were resuspended in their respective growth media (MV-4-11: IMDM + 20% FBS; Molm-13: RPMI-1640 + 20% FBS; OCI-AML-3: RPMI-1640 + 20% FBS; HL-60: RPMI-1640 + 10% FBS) and diluted to target densities (12,500, 6,250, 12,500, and 12,500/mL, respectively). The cell suspensions were seeded into 96-well plates at 80 µL per well and incubated overnight at 37°C in a 5% CO2 incubator. Culture medium served as the background control. Test compounds were dissolved in DMSO to prepare 10 mmol/L stock solutions. The stock solutions were first diluted to 2 mmol/L with DMSO, followed by 4-fold serial dilutions to generate 10 concentrations. From each concentration, 2 µL was diluted with 78 µL growth medium. […] After incubation at room temperature for 10 minutes, luminescence values were read using the EnVision microplate reader, and IC50 values were calculated using GraphPad Prism 8.0 software. […]

Menin-T349M = biological target: T1, Menin-T349M (Homo sapiens, UniProt O00255, T344M); assay: Fluorescence polarization assay of Menin binding to MLL peptide, T349M mutant; conditions: FP, 8 nM Menin, 4 nM MLL peptide
T1 sequence (O00255 1-615 isoform O00255-1 T349M): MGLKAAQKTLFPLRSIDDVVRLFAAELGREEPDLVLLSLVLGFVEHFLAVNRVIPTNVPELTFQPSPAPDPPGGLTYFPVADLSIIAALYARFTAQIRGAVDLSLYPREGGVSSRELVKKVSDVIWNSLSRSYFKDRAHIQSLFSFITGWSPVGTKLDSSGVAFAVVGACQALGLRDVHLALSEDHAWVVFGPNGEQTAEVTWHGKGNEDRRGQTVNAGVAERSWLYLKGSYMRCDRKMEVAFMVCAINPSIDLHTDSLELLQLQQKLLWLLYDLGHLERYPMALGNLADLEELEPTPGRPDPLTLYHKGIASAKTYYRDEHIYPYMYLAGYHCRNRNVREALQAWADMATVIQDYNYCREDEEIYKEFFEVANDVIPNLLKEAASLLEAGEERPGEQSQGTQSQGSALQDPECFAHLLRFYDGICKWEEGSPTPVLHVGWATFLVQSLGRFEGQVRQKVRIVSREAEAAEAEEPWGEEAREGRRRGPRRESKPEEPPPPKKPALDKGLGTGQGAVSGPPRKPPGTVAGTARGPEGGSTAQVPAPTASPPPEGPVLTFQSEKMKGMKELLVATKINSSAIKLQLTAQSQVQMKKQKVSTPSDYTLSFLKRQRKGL
Excerpt: • 1. Objective: To evaluate the inhibitory activity of compounds against wild-type Menin protein (Menin-WT) and its mutant variants (Menin-M327V, Menin-M327I, Menin-T349M, Menin-S160T, Menin-S160C, Menin-G331R, and Menin-G331D). • 2. Experimental Principle: The experiment employed fluorescence polarization (FP) to detect the binding of wild-type Menin protein and its mutant variants to MLL peptide. In the absence of inhibitors, binding of wild-type Menin protein and its mutant variants to MLL peptide generates a high FP signal; upon addition of inhibitors, the binding between Menin proteins and MLL peptide is disrupted, resulting in a low FP signal. • 3. Experimental Materials: Final concentration of wild-type Menin protein and its mutant variants: 8 nM; final concentration of MLL peptide: 4 nM. Assay buffer: 50 mM Tris-HCl (pH 8.0), 120 mM NaCl, 0.005% CA-630, 2 mM DTT. • 4. […] The plate was centrifuged at 1000 rpm for 60 seconds. Subsequently, 10 µL of MLL peptide was added to each assay well. The plate was centrifuged at 1000 rpm for 60 seconds and sealed with a sealing membrane. After incubation at 23°C for 60 minutes, the plate was read using a PerkinElmer Envision reader. Data Analysis: [formula]
Curve fitting: XLFIT software was used for curve fitting, employing a four-parameter logistic model with percent inhibition versus log(compound concentration) as variables.

SMILES	IC50 (MV-4-11 cells) [µM]	IC50 (Menin-T349M) [µM]
CCN(C(=O)c1cc(F)ccc1Oc1cncnc1N1CC2(CCN(C[C@H]3CC[C@H](NS(=O)(=O)CC)CC3)CC2)C1)C(C)C [SNDX-5613, revumenib]	0.0144	0.271
CCN(C(=O)c1cc(F)ccc1N1CCN([C@@H]2CCN([C@H](CCCN(C)CCOC)C(C)C)C2)c2ncncc21)C(C)C [Example 3]	0.0101	0.0467
